Results reported in patent publication US20060069132A1, “Azolecarboxamide herbicides” (priority 2004, published 2006).

What was measured:
barnyardgrass [1] = assay: Test A pre-/postemergence herbicide test; format: in vivo, Echinochloa crus-galli
Summary of the method: (§1)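 Pre: seeded sandy loam, directed soil spray, compound in non-phytotoxic solvent + surfactant. Post: 1–2-leaf plants (2–10 cm), sprayed to runoff. Greenhouse ~10 d; visual injury vs untreated, 0–100 scale.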

barnyardgrass [2] = assay: Test B flooded paddy test; format: in vivo, Echinochloa crus-galli; details: 1000 g ai/ha, visual rating, scale 0 to 100 (0 no effect, 100 complete control), 13 to 15 days
Summary of the method: (§2)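 Read-out: visual comparison with controls, scored 0 to 100, where 100 means complete control and 0 no effect. Formulated chemicals were applied postemergence to plants 2–18 cm tall (1- to 4-leaf), or to flooded-paddy plants at the 2-leaf stage, then held 13 to 15 days under glass.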

morningglory [3] = assay: Test A pre-/postemergence herbicide test; format: in vivo, Ipomoea spp.
Summary of the method: as §1

ducksalad = assay: Test B flooded paddy test; format: in vivo, Heteranthera limosa; details: 1000 g ai/ha, visual rating, scale 0 to 100 (0 no effect, 100 complete control), 13 to 15 days
Summary of the method: as §2

large crabgrass [4] = assay: Test A pre-/postemergence herbicide test; format: in vivo, Digitaria sanguinalis
Summary of the method: as §1

large crabgrass [5] = assay: Test B pre-/postemergence herbicide test; format: in vivo, Digitaria sanguinalis; details: for Crabgrass, Large plant response rating: postemergence, visual rating, scale 0 (no effect) to 100 (complete control)
Summary of the method: (§3)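 Flooded paddy rice and barnyardgrass were treated at the 2-leaf stage; upland plantings received compound either on sown seed or on 1- to 4-leaf seedlings. All were kept 13–15 days in a greenhouse and scored visually, 0–100, relative to untreated plants.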

giant foxtail [6] = assay: Test A pre-/postemergence herbicide test; format: in vivo, Setaria faberi
Summary of the method: as §1

[7] = test system: small flower umbrella sedge; assay: Test B flooded paddy test; format: in vivo, Cyperus difformis; details: 1000 g ai/ha, visual rating, scale 0 to 100 (0 no effect, 100 complete control), 13 to 15 days
Summary of the method: as §2

wheat = assay: Test B postemergence herbicide test; format: in vivo, Triticum aestivum; design: key to Wheat plant response rating: 0 = no effect, 100 = complete control; details: postemergence, visual rating, scale 0 (no effect) to 100 (complete control)
Summary of the method: (§4)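 Greenhouse test; postemergence application to plants at 1–4 leaves (2–18 cm); paddy species at 2 leaves; evaluated visually vs controls at 13–15 days; scale 0–100 (100 = complete control).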

cocklebur = assay: Test B pre-/postemergence herbicide test; format: in vivo, Xanthium strumarium; details: for Cocklebur plant response rating: postemergence, visual rating, scale 0 (no effect) to 100 (complete control)
Summary of the method: (§5)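 Pre: seeds sown, then sprayed. Post: 1–4-leaf plants (2–18 cm) sprayed at the same time. Paddy: flooded, treated at 2-leaf stage. Formulation: non-phytotoxic solvent with surfactant. Greenhouse 13–15 days; visual 0–100 score relative to controls.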

corn = assay: Test B pre-/postemergence herbicide test; format: in vivo, Zea mays; details: for Corn plant response rating: postemergence, visual rating, scale 0 (no effect) to 100 (complete control)
Summary of the method: as §3

wild oat = assay: Test B postemergence herbicide test; format: in vivo, Avena fatua; details: postemergence, visual rating, scale 0 (no effect) to 100 (complete control)
Summary of the method: as §4

rice = assay: Test B flooded paddy test; format: in vivo, Oryza sativa; details: 1000 g ai/ha, visual rating, scale 0 to 100 (0 no effect, 100 complete control), 13 to 15 days
Summary of the method: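 After treating 2-leaf paddy plants or 2–18 cm postemergence plants (1 to 4 leaves) with formulated chemical, researchers kept them in a greenhouse for 13–15 days. Effects were judged visually versus controls: 0 indicates none, 100 total control.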

velvetleaf [8] = assay: Test A pre-/postemergence herbicide test; format: in vivo, Abutilon theophrasti
Summary of the method: as §1

morningglory [9] = assay: Test B pre-/postemergence herbicide test; format: in vivo, Ipomoea coccinea; details: for Morningglory plant response rating: postemergence, visual rating, scale 0 (no effect) to 100 (complete control)
Summary of the method: as §5

redroot pigweed = assay: Test A pre-/postemergence herbicide test; format: in vivo, Amaranthus retroflexus
Summary of the method: as §1

giant foxtail [10] = assay: Test B pre-/postemergence herbicide test; format: in vivo, Setaria faberi; details: for Foxtail, Giant plant response rating: postemergence, visual rating, scale 0 (no effect) to 100 (complete control)
Summary of the method: as §3

barnyardgrass [11] = assay: Test B pre-/postemergence herbicide test; format: in vivo, Echinochloa crus-galli; details: for Barnyardgrass plant response rating: postemergence, visual rating, scale 0 (no effect) to 100 (complete control)
Summary of the method: as §5

blackgrass = assay: Test B postemergence herbicide test; format: in vivo, Alopecurus myosuroides; details: postemergence, visual rating, scale 0 (no effect) to 100 (complete control)
Summary of the method: as §2

pigweed = assay: Test B pre-/postemergence herbicide test; format: in vivo, Amaranthus retroflexus; details: for Pigweed plant response rating: postemergence, visual rating, scale 0 (no effect) to 100 (complete control)
Summary of the method: as §3

lambsquarters = assay: Test B pre-/postemergence herbicide test; format: in vivo, Chenopodium album; details: for Lambsquarters plant response rating: postemergence, visual rating, scale 0 (no effect) to 100 (complete control)
Summary of the method: as §3

velvetleaf [12] = assay: Test B pre-/postemergence herbicide test; format: in vivo, Abutilon theophrasti; details: for Velvetleaf plant response rating: postemergence, visual rating, scale 0 (no effect) to 100 (complete control)
Summary of the method: as §3

Surinam grass = assay: Test B pre-/postemergence herbicide test; format: in vivo, Urochloa decumbens; details: for Surinam Grass plant response rating: postemergence, visual rating, scale 0 (no effect) to 100 (complete control)
Summary of the method: as §3

[13] = Postemergence, 500 g ai/ha, 0 to 100 scale, 0 no effect, 100 complete control
[14] = Postemergence, 2000 g ai/ha, 0 to 100 scale, 0 no effect, 100 complete control
[15] = Preemergence, 2000 g ai/ha, visual rating, 0 to 100 scale (0 no effect, 100 complete control)
[16] = preemergence, 500 g ai/ha, visual injury, 0 to 100 scale (0 no effect, 100 complete control)
[17] = 125 g ai/ha, 0 = no effect, 100 = complete control, preemergence
[18] = 500 g ai/ha, visual rating 0-100, 0 no effect, 100 complete control, preemergence

## CC(=O)c1cccc(NC(=O)c2cn(C(C)C)nc2C)c1 [Compound 179]
Barnyardgrass [1]; [13]
  Barnyardgrass plant response rating: 5
Barnyardgrass [1]; [14]
  Plant response rating, Barnyardgrass: 10
Barnyardgrass [1]; [15]
  Barnyardgrass plant response rating: 40
Barnyardgrass [1]; [16]
  Barnyardgrass plant response rating: 0
Barnyardgrass [2]
  Barnyardgrass plant response rating: 0
Morningglory [3]; [13]
  Morningglory plant response rating: 10
Morningglory [3]; [14]
  Plant response rating, Morningglory: 30
Morningglory [3]; [15]
  Morningglory plant response rating: 5
Morningglory [3]; [16]
  Morningglory plant response rating: 0
ducksalad
  Ducksalad plant response rating: 0
Large crabgrass [4]; [13]
  Crabgrass, Large plant response rating: 10
Large crabgrass [4]; [14]
  Plant response rating, Crabgrass, Large: 10
Large crabgrass [4]; [15]
  Crabgrass, Large plant response rating: 50
Large crabgrass [4]; [16]
  Crabgrass, Large plant response rating: 0
Large crabgrass [5]; [17]
  Crabgrass, Large plant response rating (0 to 100 scale): 0
Large crabgrass [5]; [18]
  Plant response rating, Crabgrass, Large: 0
Large crabgrass [5]; 125 g ai/ha
  Crabgrass, Large plant response rating: 0
Large crabgrass [5]; 500 g ai/ha
  Crabgrass, Large plant response rating: 0
Giant foxtail [6]; [13]
  Foxtail, Giant plant response rating: 0
Giant foxtail [6]; [14]
  Plant response rating, Foxtail, Giant: 10
Giant foxtail [6]; [15]
  Foxtail, Giant plant response rating: 10
Giant foxtail [6]; [16]
  Foxtail, Giant plant response rating: 0
[7]
  Sedge, Umbrella plant response rating: 0
wheat; 125 g ai/ha
  Wheat plant response rating: 0
wheat; 500 g ai/ha
  Wheat plant response rating: 0
cocklebur; [17]
  Cocklebur plant response rating (0 to 100 scale): 0
cocklebur; [18]
  Plant response rating, Cocklebur: 0
cocklebur; 125 g ai/ha
  Cocklebur plant response rating: 0
cocklebur; 500 g ai/ha
  Cocklebur plant response rating: 0
corn; [17]
  Corn plant response rating (0 to 100 scale): 0
corn; [18]
  Plant response rating, Corn: 0
corn; 125 g ai/ha
  Corn plant response rating: 0
corn; 500 g ai/ha
  Corn plant response rating: 0
Wild oat; 125 g ai/ha
  Oat, Wild plant response rating: 0
Wild oat; 500 g ai/ha
  Oat, Wild plant response rating: 0
rice
  Rice plant response rating: 0
Velvetleaf [8]; [13]
  Velvetleaf plant response rating: 0
Velvetleaf [8]; [14]
  Plant response rating, Velvetleaf: 5
Velvetleaf [8]; [15]
  Velvetleaf plant response rating: 0
Velvetleaf [8]; [16]
  Velvetleaf plant response rating: 0
Morningglory [9]; [17]
  Morningglory plant response rating (0 to 100 scale): 0
Morningglory [9]; [18]
  Plant response rating, Morningglory: 0
Morningglory [9]; 125 g ai/ha
  Morningglory plant response rating: 0
Morningglory [9]; 500 g ai/ha
  Morningglory plant response rating: 0
Redroot pigweed; [13]
  Pigweed plant response rating: 0
Redroot pigweed; [14]
  Plant response rating, Pigweed: 10
Redroot pigweed; [15]
  Pigweed plant response rating: 35
Redroot pigweed; [16]
  Pigweed plant response rating: 0
Giant foxtail [10]; [17]
  Foxtail, Giant plant response rating (0 to 100 scale): 0
Giant foxtail [10]; [18]
  Plant response rating, Foxtail, Giant: 0
Giant foxtail [10]; 125 g ai/ha
  Foxtail, Giant plant response rating: 0
Giant foxtail [10]; 500 g ai/ha
  Foxtail, Giant plant response rating: 0
Barnyardgrass [11]; [17]
  Barnyardgrass plant response rating (0 to 100 scale): 0
Barnyardgrass [11]; [18]
  Plant response rating, Barnyardgrass: 0
Barnyardgrass [11]; 125 g ai/ha
  Barnyardgrass plant response rating: 0
Barnyardgrass [11]; 500 g ai/ha
  Barnyardgrass plant response rating: 0
blackgrass; 125 g ai/ha
  Blackgrass plant response rating: 0
blackgrass; 500 g ai/ha
  Blackgrass plant response rating: 0
pigweed; [17]
  Pigweed plant response rating (0 to 100 scale): 0
pigweed; [18]
  Plant response rating, Pigweed: 0
pigweed; 125 g ai/ha
  Pigweed plant response rating: 0
pigweed; 500 g ai/ha
  Pigweed plant response rating: 0
lambsquarters; [17]
  Lambsquarters plant response rating (0 to 100 scale): 0
lambsquarters; [18]
  Plant response rating, Lambsquarters: 0
lambsquarters; 125 g ai/ha
  Lambsquarters plant response rating: 0
lambsquarters; 500 g ai/ha
  Lambsquarters plant response rating: 0
Velvetleaf [12]; [17]
  Velvetleaf plant response rating (0 to 100 scale): 0
Velvetleaf [12]; [18]
  Plant response rating, Velvetleaf: 0
Velvetleaf [12]; 125 g ai/ha
  Velvetleaf plant response rating: 0
Velvetleaf [12]; 500 g ai/ha
  Velvetleaf plant response rating: 0
Surinam grass; [17]
  Surinam Grass plant response rating (0 to 100 scale): 0
Surinam grass; [18]
  Plant response rating, Surinam Grass: 0
Surinam grass; 125 g ai/ha
  Surinam Grass plant response rating: 0
Surinam grass; 500 g ai/ha
  Surinam Grass plant response rating: 0
